{
  "source": "patent US9125912B1",
  "about": "“Method of treating ulcerative colitis” (KING SAUD UNIVERSITY, priority 2015, dated 2015)",
  "system": "ulcerative colitis induced by acetic acid",
  "assay": "Ulcerative colitis induced by acetic acid in rats, macroscopic parameters",
  "assay_type": "in vivo, Male Wistar rats",
  "conditions": "from ulcer index, oral once daily for 5 days before induction, extracts 400 mg/kg, volatile oil 50 mg/kg, dexamethasone 0.1 mg/kg",
  "text": "The extracts (total alcohol extract, total phenolic contents and volatile oil) of the three plants under investigation were freshly suspended in distilled water just before administration by the aid of Tween 80.\nThe extracts of Ocimum americanum, Ocimum basilicum and Ocimum basilicum var. thyrsiflora were independently administered to rats five days prior to ulcer induction. In detail, twelve experimental groups, each of 6 Male Wistar rats were used. Rats of groups 1 and 2 received the vehicle (5 mL/kg) and served as normal control and control colitis groups. […] Rats of groups 4-12 received the volatile oil extract, the total alcohol extract and the total phenolic extract of each of the three plants. Doses of 400 mg/kg of the total alcohol extract and the phenolic content were administered. Doses of 50 mg/kg of the volatile oil were administered. All medications were administered orally, once daily for 5 successive days and the last dose was administered 2 hours before colitis induction.\nAnimals were fasted overnight, with access to water ad libitum. Under ether anesthesia a solution of 2 mL (4%, v/v) acetic acid in saline was slowly infused into the colon through the polyethylene catheter 2 mm diameter that was inserted into the lumen of the colon via the anus to a distance of 8 cm. […]\nThe colon specimens were weighted and wet weight/length ratio was calculated for all the rats. The specimens were examined under a dissecting microscope and the lesion scores were quantified by scoring system (0-5).\nUlcer area was measured using plane glass square. Each cell on the glass square was 1 mm^2 in area and the number of cells was counted and the ulcer area was determined for each colon.\nUlcer index (UI) was measured by summing the lesion score and the ulcer area for each colon specimen. The curative ratio was determined according to the formula: Curative ratio=Control UI−Test UI/Control UI×100.\nData were expressed as mean±S. D. Statistical analysis was done by using SPSS 14. Statistical significance of differences between two means was assessed by unpaired Student's ‘t’ test. […]",
  "data": [
    {"smiles": "C[C@@H]1C[C@H]2[C@@H]3CCC4=CC(=O)C=C[C@]4(C)[C@@]3(F)[C@@H](O)C[C@]2(C)[C@@]1(O)C(=O)CO", "note": "[Dexamethasone]", "values": [
      {"measurement": "% Protection from control colitis", "value": 71.54, "unit": "%"},
      {"measurement": "% Protection from control colitis", "setting": "listed as dexamesthasone", "value": "about 71.54%"},
      {"measurement": "% Protection from control colitis", "setting": "listed as dexamethasone", "value": 71.54, "unit": "%"}
    ]}
  ]
}
